Source: paper PMC8217813, “Bridging Computational Vaccinology and Vaccine Development Through Systematic Identification, Characterization, and Downselection of Conserved and Variable Circumsporozoite Protein CD4 T Cell Epitopes From Diverse Plasmodium falciparum Strains” (Frontiers in Immunology, 2021)

Test system: CD4 T cells co-cultured with autologous DCs from PBMCs
Type: cell-based, human
[1] = DR1 donors N=5, positive = Stimulation Index ≥1.5-fold above baseline, ICCS, 5 µg/mL peptide
[2] = DR3 donors N=6, positive = Stimulation Index ≥1.5-fold above baseline, ICCS, 5 µg/mL peptide
[3] = DR4 donors N=10, positive = Stimulation Index ≥1.5-fold above baseline, ICCS, 5 µg/mL peptide
[4] = DR7 donors N=4, positive = Stimulation Index ≥1.5-fold above baseline, ICCS, 5 µg/mL peptide
[5] = DR8 donors N=4, positive = Stimulation Index ≥1.5-fold above baseline, ICCS, 5 µg/mL peptide
[6] = DR9 donors N=4, positive = Stimulation Index ≥1.5-fold above baseline, ICCS, 5 µg/mL peptide
[7] = DR11 donors N=4, positive = Stimulation Index ≥1.5-fold above baseline, ICCS, 5 µg/mL peptide
[8] = DR13 donors N=7, positive = Stimulation Index ≥1.5-fold above baseline, ICCS, 5 µg/mL peptide
[9] = DR15 donors N=7, positive = Stimulation Index ≥1.5-fold above baseline, ICCS, 5 µg/mL peptide

DQHIEQYLKTIQNSLSTEWS [ICS4]
Percentage of donors demonstrating IFN-γ responses, DR1 (DR1 donors N=5, positive = Stimulation Index ≥1.5-fold above baseline, ICCS after 14-day co-culture, 5 µg/mL peptide): 0%
Percentage of donors demonstrating IL-2 responses, DR1 [1]: 20%
Percentage of donors demonstrating IL-4 responses, DR1 [1]: 0%
Percentage of donors demonstrating IL-10 responses, DR1 [1]: 0%
Percentage of donors demonstrating TNF-α responses, DR1 [1]: 0%
Percentage of donors demonstrating IFN-γ responses, DR3 (DR3 donors N=6, positive = Stimulation Index ≥1.5-fold above baseline, ICCS after 14-day co-culture, 5 µg/mL peptide): 0%
Percentage of donors demonstrating IL-2 responses, DR3 [2]: 0%
Percentage of donors demonstrating IL-4 responses, DR3 [2]: 17%
Percentage of donors demonstrating IL-10 responses, DR3 [2]: 0%
Percentage of donors demonstrating TNF-α responses, DR3 [2]: 0%
Percentage of donors demonstrating IFN-γ responses, DR4 (DR4 donors N=10, positive = Stimulation Index ≥1.5-fold above baseline, ICCS after 14-day co-culture, 5 µg/mL peptide): 30%
Percentage of donors demonstrating IL-2 responses, DR4 [3]: 20%
Percentage of donors demonstrating IL-4 responses, DR4 [3]: 0%
Percentage of donors demonstrating IL-10 responses, DR4 [3]: 10%
Percentage of donors demonstrating TNF-α responses, DR4 [3]: 30%
Percentage of donors demonstrating IFN-γ responses, DR7 (DR7 donors N=4, positive = Stimulation Index ≥1.5-fold above baseline, ICCS after 14-day co-culture, 5 µg/mL peptide): 0%
Percentage of donors demonstrating IL-2 responses, DR7 [4]: 0%
Percentage of donors demonstrating IL-4 responses, DR7 [4]: 0%
Percentage of donors demonstrating IL-10 responses, DR7 [4]: 0%
Percentage of donors demonstrating TNF-α responses, DR7 [4]: 0%
Percentage of donors demonstrating IFN-γ responses, DR8 (DR8 donors N=4, positive = Stimulation Index ≥1.5-fold above baseline, ICCS after 14-day co-culture, 5 µg/mL peptide): 0%
Percentage of donors demonstrating IL-2 responses, DR8 [5]: 0%
Percentage of donors demonstrating IL-4 responses, DR8 [5]: 0%
Percentage of donors demonstrating IL-10 responses, DR8 [5]: 0%
Percentage of donors demonstrating TNF-α responses, DR8 [5]: 0%
Percentage of donors demonstrating IFN-γ responses, DR9 (DR9 donors N=4, positive = Stimulation Index ≥1.5-fold above baseline, ICCS after 14-day co-culture, 5 µg/mL peptide): 0%
Percentage of donors demonstrating IL-2 responses, DR9 [6]: 0%
Percentage of donors demonstrating IL-4 responses, DR9 [6]: 0%
Percentage of donors demonstrating IL-10 responses, DR9 [6]: 0%
Percentage of donors demonstrating TNF-α responses, DR9 [6]: 0%
Percentage of donors demonstrating IFN-γ responses, DR11 (DR11 donors N=4, positive = Stimulation Index ≥1.5-fold above baseline, ICCS after 14-day co-culture, 5 µg/mL peptide): 0%
Percentage of donors demonstrating IL-2 responses, DR11 [7]: 25%
Percentage of donors demonstrating IL-4 responses, DR11 [7]: 0%
Percentage of donors demonstrating IL-10 responses, DR11 [7]: 0%
Percentage of donors demonstrating TNF-α responses, DR11 [7]: 0%
Percentage of donors demonstrating IFN-γ responses, DR13 (DR13 donors N=7, positive = Stimulation Index ≥1.5-fold above baseline, ICCS after 14-day co-culture, 5 µg/mL peptide): 0%
Percentage of donors demonstrating IL-2 responses, DR13 [8]: 0%
Percentage of donors demonstrating IL-4 responses, DR13 [8]: 14%
Percentage of donors demonstrating IL-10 responses, DR13 [8]: 0%
Percentage of donors demonstrating TNF-α responses, DR13 [8]: 0%
Percentage of donors demonstrating IFN-γ responses, DR15 (DR15 donors N=7, positive = Stimulation Index ≥1.5-fold above baseline, ICCS after 14-day co-culture, 5 µg/mL peptide): 29%
Percentage of donors demonstrating IL-2 responses, DR15 [9]: 14%
Percentage of donors demonstrating IL-4 responses, DR15 [9]: 0%
Percentage of donors demonstrating IL-10 responses, DR15 [9]: 0%
Percentage of donors demonstrating TNF-α responses, DR15 [9]: 29%
median SI, IFN-γ recall responses (median stimulation index across donors, response with peptide divided by response with no peptide): 0.74
